Data published in US20160272627A1, “POLYMORPHIC FORMS OF SUVOROXANT” (priority 2012, published 2016).

Tests used:
Format in all cases: physicochemical
[1] = Slurrying of Form A in solvents (Examples 26 to 38); details: slurrying in few solvents (Examples 26 to 38), 27° C., 17-24 hours
Description: Suvorexant Form-A (500 mg) and methanol (20 ml) were introduced in 100 ml round bottom flask. The heterogeneous mixture so obtained was stirred at 27° C. for 17 hours and the solid substance was then filtered under vacuum. The product was dried at 60° C. in air tray drier to obtain Form B.
The process of example 26 was repeated wherein methanol was replaced by following solvents to obtain Form B: […]

[2] = Slurry of Form B in water at about 80° C., solid analysed with XRD; details: water slurry at about 80° C. for about 1 hour, filtered at 80° C.
Description: (§1) All PXRD data reported herein are obtained using a Bruker AXS D8 Advance Powder X-ray Diffractometer or a PANalytical X-ray Diffractometer, using copper Kα radiation wavelength 1.5418 Å.
Suvorexant Form B (500 mg) and water (10 ml) were introduced in round bottom flask. The heterogeneous mixture so obtained was slurried with stirring at about 80° C. for about 1 hour and the solid substance was then filtered under vacuum at 80° C. The filtered solid was analyzed after 1 hour and 4 hours. The solid obtained after 1 hour and 4 hours were Form B up on analysis with XRD.

[3] = Slurry of Form B in water at about room temperature, solid analysed with XRD
Description: as §1
Suvorexant Form B (500 mg) and water (10 ml) were introduced in round bottom flask. The heterogeneous mixture so obtained was slurried with stirring at about room temperature for about 1 hour. The heterogeneous mixture was divided in to two parts. The first part was filtered under vacuum. The filtered solid was analyzed after 2 hour and 4 hours. The solid obtained after 2 hour and 4 hours were Form B up on analysis with XRD. The second part was stirred over night at room temperature and then filtered under vacuum. The solid obtained from second part was Form B up on analysis with XRD.

Structure (SMILES) | polymorphic form conversion up on slurrying [1] | polymorphic form of the solid up on analysis with XRD ([2]; filtered solid analyzed after 1 hour) | polymorphic form of the solid up on analysis with XRD ([2]; filtered solid analyzed after 4 hours) | polymorphic form of the solid up on analysis with XRD ([3]; water slurry at about room temperature for about 1 hour, first part filtered, filtered solid analyzed after 2 hour) | polymorphic form of the solid up on analysis with XRD ([3]; water slurry at about room temperature for about 1 hour, first part filtered, filtered solid analyzed after 4 hours) | polymorphic form of the solid up on analysis with XRD ([3]; water slurry, second part stirred over night at room temperature, then filtered)
Cc1ccc(-n2nccn2)c(C(=O)N2CCN(c3nc4cc(Cl)ccc4o3)CC[C@H]2C)c1 [Form A, 5-chloro-2-{(5R)-5-methyl-4-[5-methyl-2-(2H-1,2,3-triazol-2-yl)benzoyl]-1,4-diazepan-1 yl}-1,3-benzoxazole] | converted in to Form B | – | – | – | – | –
Cc1ccc(-n2nccn2)c(C(=O)N2CCN(c3nc4cc(Cl)ccc4o3)CC[C@H]2C)c1 [Suvorexant Form B, 5-chloro-2-{(5R)-5-methyl-4-[5-methyl-2-(2H-1,2,3-triazol-2-yl)benzoyl]-1,4-diazepan-1 yl}-1,3-benzoxazole] | – | Form B | Form B | Form B | Form B | Form B
